Assay results published in article PMC4806471, “Oral proteasome inhibitor with strong preclinical efficacy in myeloma models” (BMC Cancer, 2016).

Legend:
proteasome CT-L activity = test: Binding kinetics: CT-L activity in RPMI8226 cells at different time points after 1-h pulse treatment; assay type: cell-based, human; conditions: CT-L activity in RPMI8226 cells after 1-h pulse treatment
20S proteasome T-L, β2 = biological target: T1, 20S proteasome T-L, β2 (Homo sapiens, UniProt Q99436); test: In vitro 20S proteasome inhibition in RPMI8226 cell lysate, Z-Ala-Arg-Arg-AMC substrate; assay type: biochemical; conditions: RPMI8226 cellular lysates, 1 h at 37 °C
T1 sequence (Q99436 44-277): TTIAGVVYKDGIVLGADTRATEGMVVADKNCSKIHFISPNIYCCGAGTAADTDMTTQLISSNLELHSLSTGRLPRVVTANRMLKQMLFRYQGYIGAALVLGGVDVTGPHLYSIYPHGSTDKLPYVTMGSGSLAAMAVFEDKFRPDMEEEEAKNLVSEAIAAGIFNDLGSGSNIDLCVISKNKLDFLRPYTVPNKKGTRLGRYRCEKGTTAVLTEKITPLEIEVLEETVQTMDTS
Experimental: (§1) Pomalidomide was purchased from Tokyo Chemical Industry.
(§2) RPMI8226 cell lysate was used for the in vitro proteasome inhibition assay. Cells were washed with PBS and resuspended in 20 mM Tris–HCl, pH 7.5. Then, cells were lysed on ice by dounce homogenization and the supernatants were collected by centrifugation. The assay was conducted in 96-well plates by incubating 2 μg of lysates with serial dilutions of a test compound and 20 μM of substrate at 37 °C for 1 h. After incubation, production of hydrolyzed AMC groups was measured using a FlexStation II Fluorometer (Molecular Devices) or using a Spectra MAX Gemini Fluorometer (Molecular Devices) with an excitation filter of 380 nm and an emission filter of 460 nm.

20S proteasome C-L, β1 = biological target: T2, 20S proteasome C-L, β1 (Homo sapiens, UniProt P28072+Q99436); test: In vitro 20S proteasome inhibition in RPMI8226 cell lysate, Z-Leu-Leu-Glu-AMC substrate; assay type: biochemical; conditions: RPMI8226 cellular lysates, 1 h at 37 °C
T2 construct: endogenous in cells; host or cells: RPMI8226 (human multiple myeloma)
Experimental: as §1, §2

[1] = system: CD138+ cells from bone marrow of MM patients; test: Viability of primary myeloma cells from MM patients (CellTiter-Glo); assay type: cell-based, human; conditions: patient 14 sample (bortezomib- and ixazomib-refractory), 48 h, % over DMSO control
Experimental: (§3) Primary MM cells were retrieved from bone marrow of patients and were enriched by Ficoll density centrifugation to a purity of >90 %, as necessary. Purity was assessed by cytomorphology on stained samples. CD138^+ cells were collected using magnetic beads (Miltenyi Biotec) and plated at a density of 8 × 10^4 cells per well onto 96-well plates in RPMI-1640 (WELGENE) containing 10 % FBS (WELGENE), 1 % penicillin-streptomycin-amphotericin B (Gibco), and 2 mM L-glutamine. Cells were then treated with a serial dilution of compound in medium containing a final concentration of 0.2 % DMSO. Cultures were incubated for 48 h and cells were then assayed for viability using the CellTiter-Glo Luminescent Cell Viability Assay kit (Promega).

[2] = Cytotoxicity in normal PBMC from healthy donors (CellTiter-Glo); assay type: cell-based; conditions: human, 10,000 nM, read-out: Viability of normal PBMC at highest concentration tested
Experimental: as §3
Peripheral blood mononuclear cells (PBMCs) isolated from the heparinized blood samples of normal healthy donors were also plated and processed as described above.

MM.1S xenografts [3] = test: Anti-tumor activity of repeat oral dosing in MM.1S xenograft model; assay type: in vivo, mice; conditions: 5 mg/kg oral twice a week
Experimental: (§4) In vivo efficacy studies were performed in female BALB/c nude mice (8 weeks old) purchased from ORIENT Bio or female NOD.SCID mice (11–13 weeks old) purchased from HFK Bioscience. The animals were housed and maintained in a controlled environment including a 12 h light and 12 h dark cycle with automatic timers and received food and water ad libitum. All experiments were done under protocols approved by the Institutional Animal Care and Use Committee (IACUC). Moribund animals were sacrificed when necessary and animal carcasses were disposed of according to IACUC guidelines.
1 × 10^7 MM.1S tumor cells in 0.1 ml of Dulbecco’s Phosphate-Buffered Saline (1:1 matrigel) were implanted subcutaneously into the right flank of female athymic nude mice. Tumor growth was monitored with calipers and mice were divided into homogeneous cohorts according to their initial tumor volume. […] The compounds were formulated in 0.5 % methyl cellulose and administered at the indicated doses and regimens by oral gavage at a dose volume of 10 mL/kg. For the RPMI8226 model, a total of 1 × 10^7 cells in 0.2 ml of PBS (1:1 matrigel) were implanted subcutaneously into the hind flank of female NOD.SCID mice. Whole blood was collected by cardiac puncture into tubes containing sodium heparin and cells were harvested by centrifugation. Blood cell pellets and tumor tissues were homogenized in lysis buffer (50 mM Tris–HCl, pH 8.0, 5 mM EDTA, 150 mM NaCl, 0.5 % Nonidet P-40, 0.5 mM phenylmethylsulfonyl fluoride, and 0.5 mM dithiothreitol) for 30 min at 4 °C. The lysates were centrifuged at 14,000 × g for 30 min, and the supernatants were collected as whole blood cell extracts and tumor cell extracts, respectively, for pharmacodynamic analysis. […] The mean, standard deviation (SD), and standard error of the mean (SEM) were calculated for each experimental group, and statistical analyses were performed using standard two tailed Student’s t-test (significance defined as P ≤ 0.05).

RPMI8226 xenografts = test: Anti-tumor activity of repeat dosing in RPMI8226 xenograft model; assay type: in vivo; conditions: 5 mg/kg oral, the day after the first treatment, NOD.SCID mice
Experimental: as §4
(§5) 1 × 10^7 MM.1S tumor cells in 0.1 ml of Dulbecco’s Phosphate-Buffered Saline (1:1 matrigel) were implanted subcutaneously into the right flank of female athymic nude mice. Tumor growth was monitored with calipers and mice were divided into homogeneous cohorts according to their initial tumor volume. […] The compounds were formulated in 0.5 % methyl cellulose and administered at the indicated doses and regimens by oral gavage at a dose volume of 10 mL/kg. […] The mean, standard deviation (SD), and standard error of the mean (SEM) were calculated for each experimental group, and statistical analyses were performed using standard two tailed Student’s t-test (significance defined as P ≤ 0.05).

MM.1S xenografts [4] = test: MM.1S xenograft study of LC53-0151 with or without pomalidomide; assay type: in vivo, mice; conditions: pomalidomide 2.5 mg/kg oral 5 days per week, 3 weeks; not statistically significant
Experimental: as §4
as §5, with “0.05). […]” for “0.05).”

CC(C)C[C@H](NC(=O)[C@H](Cc1ccccc1)NC(=O)c1cnccn1)B(O)O [Bortezomib]
Binding kinetics (proteasome CT-L activity): reversible

CC(C)C[C@H](NC(=O)[C@H](CCc1ccccc1)NC(=O)CN1CCOCC1)C(=O)N[C@@H](Cc1ccccc1)C(=O)N[C@@H](CC(C)C)C(=O)[C@@]1(C)CO1 [Carfilzomib]
Binding kinetics (proteasome CT-L activity): irreversible

CC(C)C[C@H](NC(=O)CNC(=O)c1cc(Cl)ccc1Cl)B(O)O [Ixazomib]
IC50 (20S proteasome T-L, β2): > 10000 nM | IC50 (20S proteasome C-L, β1): 6 to 7 nM | Binding kinetics (proteasome CT-L activity): reversible | Viability at 12.5 nM [1]: did not show any effect on viability | viability at 48 h, 10000 nM [2]: > 50% | Tumor volume, % of start tumor volume (maximum regression) (MM.1S xenografts [3]; day 8): 36% | Tumor growth inhibition compared to vehicle control (MM.1S xenografts [3]; day 15): 72% | Tumor volume, % of start tumor volume (MM.1S xenografts [3]; day 15): 58% | Mortality in efficacy model (RPMI8226 xenografts): all 8 mice died or were euthanized

Nc1cccc2c1C(=O)N(C1CCC(=O)NC1=O)C2=O (stereo not drawn) [pomalidomide, Pomalidomide]
Reduction of tumor volume compared to vehicle-treated mice (MM.1S xenografts [4]): 10%
